Where two headings read alike, the source gives them in different places.
Experiments:
[1] = biological target: T1, Progesterone receptor (Homo sapiens, UniProt P06401); test: PR-anti CALUX; type: cell-based; settings: 24 h exposure, lowest effect level PC20, reference agonist at EC50, means from 3 assay runs
T1 construct: host or cells: U-2 OS
T1 sequence (P06401 1-933): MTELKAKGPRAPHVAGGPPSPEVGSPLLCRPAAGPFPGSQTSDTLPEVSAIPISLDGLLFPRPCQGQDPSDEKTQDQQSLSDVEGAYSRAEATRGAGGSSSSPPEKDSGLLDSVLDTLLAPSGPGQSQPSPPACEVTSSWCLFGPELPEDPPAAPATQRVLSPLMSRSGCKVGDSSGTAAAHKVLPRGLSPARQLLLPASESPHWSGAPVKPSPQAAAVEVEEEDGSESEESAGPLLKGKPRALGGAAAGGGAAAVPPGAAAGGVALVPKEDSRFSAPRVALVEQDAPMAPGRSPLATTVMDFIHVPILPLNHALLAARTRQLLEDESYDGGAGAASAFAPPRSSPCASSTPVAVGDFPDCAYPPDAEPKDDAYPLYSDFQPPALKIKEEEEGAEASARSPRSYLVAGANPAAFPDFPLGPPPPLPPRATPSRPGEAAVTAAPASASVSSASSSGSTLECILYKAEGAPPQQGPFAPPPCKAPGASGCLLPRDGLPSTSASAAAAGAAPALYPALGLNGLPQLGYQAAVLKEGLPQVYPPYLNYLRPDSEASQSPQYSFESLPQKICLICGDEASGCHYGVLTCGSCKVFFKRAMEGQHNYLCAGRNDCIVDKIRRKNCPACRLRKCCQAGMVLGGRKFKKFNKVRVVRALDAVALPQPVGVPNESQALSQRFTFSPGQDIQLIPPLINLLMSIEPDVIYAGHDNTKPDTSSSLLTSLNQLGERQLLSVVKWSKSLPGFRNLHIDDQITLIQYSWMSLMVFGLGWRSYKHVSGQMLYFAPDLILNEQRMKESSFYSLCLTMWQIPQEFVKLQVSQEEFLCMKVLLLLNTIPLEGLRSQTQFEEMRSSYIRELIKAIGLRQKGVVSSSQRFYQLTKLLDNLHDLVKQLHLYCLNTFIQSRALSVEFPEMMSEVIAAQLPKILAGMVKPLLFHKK
Experimental: (§1) After 24 h, exposure medium was prepared. […] All samples were tested in triplicates. […] Fig. SM_4. […] Fig. SM_4.
(§2) Supplementary Material SM_4
(§3) Overview of CALUX assays.
(§4) This is defined as the concentration of test compound […]
(§5) for an antagonist assay is a PC20.
(§6) PC = positive control. FI = fold induction. PC10: concentration where test compound causes an activation equal to 10% of the maximum effect (positive control). PC20: concentration where test compound causes […]
(§7) FI=1.5: concentration where test
(§8) (A) exemplary graph of concentration- […]
(§9) receptor antagonism assay with PC20 as lowest-effect-level. (C) exemplary graph for assay with 1.5 fold inductionas lowest effect level. 9

[2] = biological target: T2, Pregnane X receptor (Homo sapiens, UniProt O75469); test: PXR CALUX; type: cell-based; settings: 24 h exposure, lowest effect level PC10, means from 3 assay runs
T2 construct: host or cells: U-2 OS
T2 sequence (O75469 1-434): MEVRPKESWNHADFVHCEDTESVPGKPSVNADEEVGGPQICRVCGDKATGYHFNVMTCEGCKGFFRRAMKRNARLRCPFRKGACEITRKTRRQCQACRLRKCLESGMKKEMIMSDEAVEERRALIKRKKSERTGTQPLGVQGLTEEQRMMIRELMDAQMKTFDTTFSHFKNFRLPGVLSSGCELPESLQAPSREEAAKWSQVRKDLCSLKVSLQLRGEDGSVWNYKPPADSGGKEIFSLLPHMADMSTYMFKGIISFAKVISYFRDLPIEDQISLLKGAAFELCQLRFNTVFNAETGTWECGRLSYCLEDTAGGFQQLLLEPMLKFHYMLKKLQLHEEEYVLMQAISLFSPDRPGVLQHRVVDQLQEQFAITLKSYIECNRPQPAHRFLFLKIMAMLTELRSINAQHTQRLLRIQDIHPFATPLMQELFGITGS
Experimental: as §1, §2, §3, §4, §5, §6, §7, §8, §9

[3] = tested on: Endoplasmic reticulum stress; test: ESRE CALUX; type: cell-based, human; settings: 24 h exposure, lowest effect level PC10, means from 3 assay runs
Experimental: as §1, §2, §3, §4, §5, §6, §7, §8, §9

[4] = tested on: Nrf2 (Oxidative stress); test: Nrf2 CALUX; type: cell-based, human; settings: 24 h exposure, lowest effect level FI=1.5, means from 3 assay runs
Experimental: as §1, §2, §3, §4, §5, §6, §7, §8, §9

[5] = tested on: p53-dependent pathway activation / genotoxicity; type: cell-based, human; settings: for PoD p53: 24 h exposure, lowest effect level FI=1.5, means from 3 assay runs
Experimental: as §1, §2, §3, §4, §5, §6, §7, §8, §9

[6] = tested on: U-2 OS cells; settings: human
[7] = tested on: U-2 OS reporter cell lines battery; test: CALUX reporter gene assay battery as a whole
[8] = tested on: U-2 OS cells; test: Cytotox CALUX; settings: 24 h exposure, lowest effect level PC20, means from 3 assay runs
[9] = design: method as in Hardman JG 2001; settings: known Cmax in man; ref Hardman JG 2001; cited from earlier work
[10] = pooled test systems of the NAM panel (all test methods)
[11] = biological target: T3, Androgen receptor (Homo sapiens, UniProt P10275); type: cell-based; settings: 24 h exposure, lowest effect level PC20, reference agonist at EC50, means from 3 assay runs
T3 construct: host or cells: U-2 OS
T3 sequence (P10275 1-920): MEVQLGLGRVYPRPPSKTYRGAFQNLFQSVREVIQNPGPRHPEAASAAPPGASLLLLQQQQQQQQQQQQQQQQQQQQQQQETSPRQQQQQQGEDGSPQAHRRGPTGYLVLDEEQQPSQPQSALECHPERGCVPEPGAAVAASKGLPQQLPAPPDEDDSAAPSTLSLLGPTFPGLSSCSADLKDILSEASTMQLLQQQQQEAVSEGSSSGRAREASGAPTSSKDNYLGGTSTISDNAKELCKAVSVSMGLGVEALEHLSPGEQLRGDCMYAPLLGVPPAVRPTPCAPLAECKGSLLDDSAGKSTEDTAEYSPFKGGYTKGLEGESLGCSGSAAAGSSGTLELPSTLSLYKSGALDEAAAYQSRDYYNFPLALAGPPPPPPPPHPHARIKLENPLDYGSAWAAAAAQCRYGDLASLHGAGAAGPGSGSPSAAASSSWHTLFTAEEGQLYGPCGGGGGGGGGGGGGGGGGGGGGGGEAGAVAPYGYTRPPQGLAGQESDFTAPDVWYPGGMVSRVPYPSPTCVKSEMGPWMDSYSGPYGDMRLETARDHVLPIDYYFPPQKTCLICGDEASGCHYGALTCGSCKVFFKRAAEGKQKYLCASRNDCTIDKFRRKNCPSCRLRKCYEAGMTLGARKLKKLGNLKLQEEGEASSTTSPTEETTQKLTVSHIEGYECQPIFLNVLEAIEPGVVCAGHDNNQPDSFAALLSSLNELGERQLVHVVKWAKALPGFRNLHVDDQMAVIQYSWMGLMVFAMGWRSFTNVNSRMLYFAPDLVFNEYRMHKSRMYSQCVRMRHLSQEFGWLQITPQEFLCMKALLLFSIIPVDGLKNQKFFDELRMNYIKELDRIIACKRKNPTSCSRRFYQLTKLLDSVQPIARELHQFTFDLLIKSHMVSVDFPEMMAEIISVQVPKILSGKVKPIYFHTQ
Experimental: as §1, §2, §3, §4, §5, §6, §7, §8, §9

[12] = biological target: T4, Thyroid hormone receptor beta (Homo sapiens, UniProt P10828); test: TRb-anti CALUX; type: cell-based; settings: 24 h exposure, lowest effect level PC20, reference agonist at EC50, means from 3 assay runs
T4 construct: host or cells: U-2 OS
T4 sequence (P10828 1-461): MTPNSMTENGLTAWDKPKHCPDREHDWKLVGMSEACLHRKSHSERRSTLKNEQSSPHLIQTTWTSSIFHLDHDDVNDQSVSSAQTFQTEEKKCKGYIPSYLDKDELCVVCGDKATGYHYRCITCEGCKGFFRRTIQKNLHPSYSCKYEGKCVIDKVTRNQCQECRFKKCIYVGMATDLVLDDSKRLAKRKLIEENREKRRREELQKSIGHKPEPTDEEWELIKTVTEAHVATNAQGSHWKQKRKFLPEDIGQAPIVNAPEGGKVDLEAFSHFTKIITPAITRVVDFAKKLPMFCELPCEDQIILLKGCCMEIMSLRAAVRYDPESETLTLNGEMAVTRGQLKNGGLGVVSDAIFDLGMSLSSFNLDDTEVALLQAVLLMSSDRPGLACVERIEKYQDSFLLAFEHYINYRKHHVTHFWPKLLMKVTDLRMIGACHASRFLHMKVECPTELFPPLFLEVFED
Experimental: as §1
Cell line Endpoint effect Reference compound […]
Cytotox CALUX Cytoxicity PC20 tributyltinacetate
as §2, §3, §4, §5, §6, §7, §8, §9

[13] = tested on: Transcription of p21 inhibitor of cell cycle progression; test: p21 CALUX; type: cell-based, human; settings: 24 h exposure, lowest effect level PC10, means from 3 assay runs
Experimental: as §1, §2, §3, §4, §5, §6, §7, §8, §9

[14] = biological target: T5, Aryl Hydrocarbon receptor (Rattus norvegicus, UniProt P41738); test: DR CALUX / AhR CALUX (rat hepatoma H-4-II-E cells); type: cell-based; settings: 24 h exposure, lowest effect level PC10, means from 3 assay runs
T5 construct: host or cells: rat hepatoma H-4-II-E (ATCC CRL-1548)
T5 sequence (P41738 10-853): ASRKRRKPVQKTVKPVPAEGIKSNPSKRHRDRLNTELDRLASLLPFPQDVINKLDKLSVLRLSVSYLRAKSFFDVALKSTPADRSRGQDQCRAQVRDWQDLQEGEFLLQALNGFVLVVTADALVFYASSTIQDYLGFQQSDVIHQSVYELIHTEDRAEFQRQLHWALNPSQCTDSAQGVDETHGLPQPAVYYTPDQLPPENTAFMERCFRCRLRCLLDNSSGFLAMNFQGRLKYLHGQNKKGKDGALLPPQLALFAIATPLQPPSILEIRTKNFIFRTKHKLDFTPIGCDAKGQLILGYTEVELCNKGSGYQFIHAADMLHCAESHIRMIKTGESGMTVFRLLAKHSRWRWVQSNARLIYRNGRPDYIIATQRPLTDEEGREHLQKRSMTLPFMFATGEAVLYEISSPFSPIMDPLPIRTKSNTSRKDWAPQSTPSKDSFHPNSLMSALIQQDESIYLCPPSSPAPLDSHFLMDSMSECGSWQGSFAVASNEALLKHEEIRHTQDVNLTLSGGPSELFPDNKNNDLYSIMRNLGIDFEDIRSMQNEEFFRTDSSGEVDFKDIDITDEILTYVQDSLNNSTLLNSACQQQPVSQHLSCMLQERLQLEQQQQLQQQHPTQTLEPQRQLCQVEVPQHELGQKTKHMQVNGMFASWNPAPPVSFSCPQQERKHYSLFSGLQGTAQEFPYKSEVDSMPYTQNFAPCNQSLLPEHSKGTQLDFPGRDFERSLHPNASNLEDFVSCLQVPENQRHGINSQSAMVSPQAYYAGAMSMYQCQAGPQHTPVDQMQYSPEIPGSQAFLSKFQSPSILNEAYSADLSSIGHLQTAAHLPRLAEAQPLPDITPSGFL

Row | SMILES | PoD PR - anta [1] | PoD PXR - ago [2] | PoD Nrf2 [4] | PoD p53 [5] | PoD cytotoxicity [6] | PoD cytotoxicity [8] | Cmax [9] [µM] | viability [10] [%] | also measured
1 | CO[C@H]1/C=C/O[C@@]2(C)Oc3c(C)c(O)c4c(O)c(c(/C=N/N5CCN(C)CC5)c(O)c4c3C2=O)NC(=O)/C(C)=C\C=C\[C@H](C)[C@H](O)[C@@H](C)[C@@H](O)[C@@H](C)[C@H](OC(C)=O)[C@@H]1C [Rifampicin] | 4.8 -log(M) | 7.1 -log(M) | 4.6 -log(M) | 4.2 -log(M) | 4.0 |  |  |  | PoD ESRE [3]: 4.0 -log(M); response profile over the CALUX battery (in words) [7]: additionally activated several stress pathway related assays
2 | C=C(C)[C@H]1Cc2c(ccc3c2O[C@@H]2COc4cc(OC)c(OC)cc4[C@@H]2C3=O)O1 [Rotenone] |  |  |  | 6.8 -log(M) |  | 5.7 -log(M) |  |  | 
3 | Cc1noc(NS(=O)(=O)c2ccc(N)cc2)c1C [Sulfisoxazole] |  |  |  |  |  |  | 464 | 100 | response profile over the CALUX battery (in words) ([7]; all CALUX assays, 13 concentrations, 24 h exposure): no effect
4 | CC(=O)O[C@H]1C(=O)[C@@]2(C)[C@H]([C@H](OC(=O)c3ccccc3)[C@]3(O)C[C@H](OC(=O)[C@H](O)[C@@H](NC(=O)c4ccccc4)c4ccccc4)C(C)=C1C3(C)C)[C@]1(OC(C)=O)CO[C@@H]1C[C@@H]2O [Taxol] | 7.4 -log(M) |  |  | 8.2 -log(M) | 5.6 |  |  |  | PoD AR - anta [11]: 7.3 -log(M); PoD TRβ - anta [12]: 7.4 -log(M); PoD p21 [13]: 8.0 -log(M); concentration activating expression of p53 [5]: < 10 nM; cytotoxic concentration [6]: about 2.5 µM
5 | CC(C)(C)C(O)(CCc1ccc(Cl)cc1)Cn1cncn1 (stereo not drawn) [Tebuconazole] | 5.6 -log(M) | 5.8 -log(M) | 4.2 -log(M) |  |  | 4.3 -log(M) |  |  | PoD AhR - ago [14]: 5.1 -log(M)
6 | CCCCNC(=O)NS(=O)(=O)c1ccc(C)cc1 [Tolbutamide] |  |  |  |  |  |  | 196 | 100 | 
